Measurements taken from US9040717B2, “Pyrazole-amide compounds and pharmaceutical use thereof” (JAPAN TOBACCO INC., priority 2013, dated 2015).

Target: human PDHK2 (hPDHK2) (Homo sapiens (Human), UniProt Q15119)
Test: Inhibitory action of PDHK2 activity in vitro (residual PDH activity after kinase reaction)
Type: biochemical
Procedure: The inhibitory action of PDHK activity was assessed indirectly by measuring the residual PDH activity after kinase reaction in the presence of a test compound.
In the case of human PDHK2 (hPDHK2, Genbank Accession No. BC040478.1), modified hPDHK2 cDNA wherein FLAG-Tag sequence was added to the N terminus of hPDHK2 cDNA clone (pReceiver-M01/PDK2-GeneCopoeia) was prepared by PCR and cloned into a vector (pET17b-Novagen). The recombinant construct was transformed into Escherichia coli (DH5α-TOYOBO). The recombinant clones were identified, and plasmid DNA was isolated and subjected to the DNA sequence analysis. One clone which had the expected nucleic acid sequence was selected for expression work.
For expression of hPDHK2 activity, Escherichia coli strain BL21(DE3) cells (Novagen) were transformed with the pET17b vector containing modified hPDHK2 cDNA. The Escherichia coli were grown to an optical density 0.6 ([…]) at 30° C. Protein expression was induced by the addition of 500 μmol/L isopropyl-β-thiogalactopyranoside. The Escherichia coli were cultured at 30° C. for 5 hr and harvested by centrifugation. Resuspension of the Escherichia coli paste was disrupted by a microfluidizer. FLAG-Tagged protein was purified using FLAG affinity gel. […]
0.05 U/mL PDH and 0.8 μg/mL hPDHK2 were mixed in a buffer (50 mmol/L 3-morpholinopropanesulfonic acid (pH 7.0), 20 mmol/L dipotassium hydrogen phosphate, 60 mmol/L potassium chloride, 2 mmol/L magnesium chloride, 0.4 mmol/L EDTA, and 0.2% Pluronic F-68, 2 mmol/L dithiothreitol), and the mixture was incubated at 4° C. overnight to obtain a PDH/hPDHK2 complex. […] The mixture was incubated at room temperature for 90 min, and the residual PDH activity was measured. The absorbance at 340 nm before and after PDH reaction was measured using a microplate reader to detect NADH produced by the PDH reaction. The hPDHK2 inhibition rate (%) of the test compound was calculated from the formula [{(PDH activity of test compound−PDH activity of control)/PDH activity of blank−PDH activity of control)}×100].

SMILES	IC50
CC(C)(O)CCCOc1cc(-c2cnn(C(C)(C)C(N)=O)c2)c2c(c1)[C@@](O)(C(F)(F)F)c1ccccc1-2 [Compound (3), 2-{4-[(9R)-9-hydroxy-2-(4-hydroxy-4-methylpentyloxy)-9-(trifluoromethyl)-9H-fluoren-4-yl]-1H-pyrazol-1-yl}-2-methylpropanamide]	4.2 nM
CC(C)(O)CCOc1cc(-c2cnn(C(C)(C)C(N)=O)c2)c2c(c1)[C@@](O)(C(F)(F)F)c1ccccc1-2 [Compound (2), 2-{4-[(9R)-9-hydroxy-2-(3-hydroxy-3-methylbutyloxy)-9-(trifluoromethyl)-9H-fluoren-4-yl]-1H-pyrazol-1-yl}-2-methylpropanamide]	4.6 nM
